Laboratory results taken from US20250082603A1, “OPHTHALMIC COMPOSITION CONTAINING RECOFLAVONE FOR THE TREATMENT OF DRY EYE DISEASE AND METHOD FOR PREPARING THE SAME” (GL PHARMTECH CORP., priority 2021, published 2025).
Where two headings read alike, the source gives them in different places.

How the values were obtained:
[1] = Dissolved state of recoflavone in sodium hydroxide aqueous solution; format: physicochemical
Procedure: When recoflavone is not dissolved in purified water, in (S1) step, sodium hydroxide as an alkalizing agent is added in an amount of not less than 1.05 which is the ratio of molar concentration to that of recoflavone. Here, the ratio of molar concentration is expressed as a value by dividing the molar concentration of sodium hydroxide by the molar concentration of recoflavone contained in the ophthalmic composition.
Specifically, (S1) step is a process where sodium hydroxide is added to purified water to prepare an aqueous solution having a molar concentration of not more than 0.16 M or not less than 0.19 M, and then recoflavone is added. Recoflavone can be dissolved transparently through the above process.
The molar concentration of sodium hydroxide is calculated in the above dissolving process not in the final volume of the manufacturing process. […] Therefore an ophthalmic composition cannot be prepared efficiently. The corresponding contents will be described in details with reference to Tables 1, 2 and FIG. 9 below.

[2] = Cell permeability of dissolved recoflavone; format: in vitro ADME; conditions: high degree of ionization
From the text: (§1) It has a property with low solubility at low pH. As the pH increases, it is ionized and its solubility increases.

[3] = cited from earlier work
[4] = Drug distribution in each tissue of eye after 3% eye drop administered to rabbit eyes; format: in vivo; conditions: data not shown
From the text: as §1

[5] = Solubility of recoflavone in water and its pH dependence; format: physicochemical
From the text: as §1
In general, an ophthalmic composition is preferably prepared in a transparent solution state in consideration of the feeling of use in eyes and the efficient absorption of the drug. […] Therefore, if recoflavone is not dissolved in purified water for an ophthalmic composition, a transparent solution may be prepared through (S1) step.

[6] = system: human keratoconjunctival epithelial cells; conditions: cited from earlier work
[7] = human keratoconjunctival epithelial cells

For `COc1ccc(-c2cc(=O)c3c(OC)cc(OCC(=O)O)cc3o2)cc1OC` [recoflavone monohydrate], the Dissolved state ([1]; molar concentration ratio 0.93, NaOH 0.196 M, recoflavone monohydrate 0.211 M) was “Not transparent”, the Dissolved state ([1]; molar concentration ratio 0.97, NaOH 0.196 M, recoflavone monohydrate 0.201 M) was “Not transparent” and the Dissolved state ([1]; molar concentration ratio 1.00, NaOH 0.196 M, recoflavone monohydrate 0.196 M) was “Not transparent”. The Dissolved state ([1]; molar concentration ratio 1.05, NaOH 0.194 M, recoflavone monohydrate 0.184 M) was “Transparent” and the Dissolved state ([1]; molar concentration ratio 1.06, NaOH 0.203 M, recoflavone monohydrate 0.192 M) was “Transparent”.
For `COc1ccc(-c2cc(=O)c3c(OC)cc(OCC(=O)O)cc3o2)cc1OC` [recoflavone, 2-((2-(3,4-dimethoxyphenyl)-5-methoxy-4-oxo-4H-chromen-7-yl)oxy) acetic acid], the cell permeability [2] is given as “poor”, the hygroscopicity ([3]; form of a hydrate) is given as “stable without hygroscopicity” and the hygroscopicity ([3]; form of an anhydride) is given as “has hygroscopicity”. The “drug concentration in the cornea” value [4] was “high immediately after the administration, but it was rapidly decreased over time”, the “drug distribution in each tissue of eye with time” value [4] was “rarely distributed in the tissues located inside the eye and mainly distributed in the surrounding tissues outside of the eye” and the “solubility at low pH” value ([5]; low pH) was “low”. For the same molecule, the solubility in water ([5]; water) was “practically insoluble”, the “thickness of the mucin layer” value ([6]; 100 μM solution) was “significantly increased” and the “MUC1, MUC4, MUC16 and MUC5AC by real-time PCR” value [6, 7] was “tendency to increase significantly for four hours and then decreased rapidly”. The “mucin proteins by Western blot analysis” value [6, 7] was “MUC5AC only had a tendency to increase and the others did not”, the “Dissolved state of recoflavone” value ([1]; NaOH aqueous solution out of the range of not more than 0.16 M or not less than 0.19 M, stirring for several hours) was “not dissolved transparently” and the “Dissolved state of recoflavone” value ([1]; final volume 40 L, recoflavone 5% (w/v), NaOH 0.196 M, purified water 28,000 mL, ratio 1.05~1.06) was “Transparent”. The “Dissolved state of recoflavone” value ([1]; final volume 70 L, recoflavone 5% (w/v), NaOH 0.196 M, purified water 49,000 mL, ratio 1.05~1.06) was “Transparent”, the “Dissolved state of recoflavone” value ([1]; final volume 100 mL, recoflavone 3% (w/v), NaOH 0.086 M, purified water 90 mL, ratio 1.05) was “Transparent” and the “Dissolved state of recoflavone” value ([1]; final volume 100 mL, recoflavone 3% (w/v), NaOH 0.097 M, purified water 80 mL) was “Transparent”. The “Dissolved state of recoflavone” value ([1]; final volume 100 mL, recoflavone 3% (w/v), NaOH 0.111 M, purified water 70 mL) was “Transparent”, the “Dissolved state of recoflavone” value ([1]; final volume 100 mL, recoflavone 5% (w/v), NaOH 0.137 M, purified water 100 mL, ratio 1.05) was “Transparent” and the “Dissolved state of recoflavone” value ([1]; final volume 100 mL, recoflavone 5% (w/v), NaOH 0.152 M, purified water 90 mL) was “Transparent”. For the same molecule, the “Dissolved state of recoflavone” value ([1]; final volume 100 mL, recoflavone 5% (w/v), NaOH 0.196 M, purified water 70 mL) was “Transparent”, the “Dissolved state of recoflavone” value ([1]; final volume 100 mL, recoflavone 5% (w/v), NaOH 0.392 M, purified water 70 mL) was “Transparent” and the “Dissolved state of recoflavone” value ([1]; final volume 100 mL, recoflavone 6% (w/v), NaOH 0.204 M, purified water 80 mL) was “Transparent”. For the same molecule, the “Dissolved state of recoflavone” value ([1]; final volume 100 mL, recoflavone 6% (w/v), NaOH 0.233 M, purified water 70 mL) was “Transparent”, the “Dissolved state of recoflavone” value ([1]; final volume 100 mL, recoflavone 6% (w/v), NaOH 0.466 M, purified water 70 mL) was “Transparent” and the “Dissolved state of recoflavone” value ([1]; final volume 100 mL, recoflavone 7% (w/v), NaOH 0.195 M, purified water 100 mL, ratio 1.05) was “Transparent”. The “Dissolved state of recoflavone” value ([1]; final volume 100 mL, recoflavone 7% (w/v), NaOH 0.279 M, purified water 70 mL) was “Transparent” and the “Dissolved state of recoflavone” value ([1]; final volume 100 mL, recoflavone 7% (w/v), NaOH 0.558 M, purified water 70 mL) was “Transparent”.
